How the values were obtained:
Plasmodium falciparum [1] = test: microbe, parasite or virus in culture; conditions: D10, 3 h
Plasmodium falciparum [2] = test: Antiplasmodial activity against chloroquine-resistant Plasmodium falciparum K1 infected in erythrocytes assessed as [3H]hypoxanthine incorporation in presence of piperaquine; format: functional
Plasmodium falciparum [3] = test: Antiplasmodial activity against chloroquine-sensitive Plasmodium falciparum D10 harboring 7G8 pfcrt allele infected in erythrocytes assessed as [3H]hypoxanthine incorporation in presence of piperaquine; format: functional
Plasmodium falciparum [4] = test: Antiplasmodial activity against chloroquine-resistant Plasmodium falciparum C6harboring 7G8 pfcrt allele infected in erythrocytes assessed as [3H]hypoxanthine incorporation in presence of piperaquine; format: functional, C6
Plasmodium falciparum [5] = test: microbe, parasite or virus in culture; conditions: 7G8, 3 h
Plasmodium falciparum [6] = test: Antiplasmodial activity against chloroquine-resistant Plasmodium falciparum 7G8 harboring parental pfcrt allele infected in erythrocytes assessed as [3H]hypoxanthine incorporation in presence of piperaquine; format: functional
Plasmodium falciparum [7] = test: microbe, parasite or virus in culture; conditions: 7G8, 3 h; remark: listed apart in the source
Plasmodium falciparum [8] = test: microbe, parasite or virus in culture; conditions: TM6, 3 h
Plasmodium falciparum [9] = test: microbe, parasite or virus in culture; conditions: K1, 3 h
Plasmodium falciparum [10] = test: Antiplasmodial activity against chloroquine-sensitive Plasmodium falciparum 3D7 infected in erythrocytes assessed as [3H]hypoxanthine incorporation in presence of piperaquine; format: functional
Plasmodium falciparum [11] = test: microbe, parasite or virus in culture; conditions: 3D7, 3 h
Plasmodium falciparum [12] = test: Antiplasmodial activity against chloroquine-resistant Plasmodium falciparum 7G8 infected in erythrocytes assessed as [3H]hypoxanthine incorporation in presence of piperaquine; format: functional
Plasmodium falciparum [13] = test: Antiplasmodial activity against chloroquine-resistant Plasmodium falciparum 7G8 harboring D10 pfcrt allele infected in erythrocytes assessed as [3H]hypoxanthine incorporation in presence of piperaquine; format: functional
Plasmodium falciparum [14] = test: Antiplasmodial activity against chloroquine-resistant Plasmodium falciparum TM6 infected in erythrocytes assessed as [3H]hypoxanthine incorporation in presence of piperaquine; format: functional
Plasmodium falciparum [15] = test: microbe, parasite or virus in culture; conditions: 7G8, 3 h; remark: listed apart in the source
Plasmodium falciparum [16] = test: microbe, parasite or virus in culture; conditions: C6, 3 h
Plasmodium falciparum [17] = test: microbe, parasite or virus in culture; conditions: D10, 3 h; remark: listed apart in the source
Plasmodium falciparum [18] = test: microbe, parasite or virus in culture; conditions: C3, 3 h
Plasmodium falciparum [19] = test: microbe, parasite or virus in culture; conditions: C2, 3 h
Plasmodium falciparum [20] = test: Antiplasmodial activity against chloroquine-resistant Plasmodium falciparum 7G8 harboring parental pfcrt allele infected in erythrocytes assessed as [3H]hypoxanthine incorporation in presence of dihydroartimisinin; format: functional
Plasmodium falciparum [21] = test: Antiplasmodial activity against chloroquine-resistant Plasmodium falciparum C6harboring 7G8 pfcrt allele infected in erythrocytes assessed as [3H]hypoxanthine incorporation in presence of dihydroartimisinin; format: functional, C6
Plasmodium falciparum [22] = test: Antiplasmodial activity against chloroquine-resistant Plasmodium falciparum 7G8 harboring D10 pfcrt allele infected in erythrocytes assessed as [3H]hypoxanthine incorporation in presence of dihydroartimisinin; format: functional
Plasmodium falciparum [23] = test: Antiplasmodial activity against chloroquine-sensitive Plasmodium falciparum D10 harboring 7G8 pfcrt allele infected in erythrocytes assessed as [3H]hypoxanthine incorporation in presence of dihydroartimisinin; format: functional
Plasmodium falciparum [24] = test: Antiplasmodial activity against chloroquine-sensitive Plasmodium falciparum C2 infected in erythrocytes assessed as [3H]hypoxanthine incorporation in presence of dihydroartimisinin; format: functional
Plasmodium falciparum [25] = test: Antiplasmodial activity against chloroquine-sensitive Plasmodium falciparum D10 infected in erythrocytes assessed as [3H]hypoxanthine incorporation in presence of dihydroartimisinin; format: functional
Plasmodium falciparum [26] = test: Antiplasmodial activity against chloroquine-resistant Plasmodium falciparum C3 harboring Dd2 pfcrt allele infected in erythrocytes assessed as [3H]hypoxanthine incorporation in presence of dihydroartimisinin; format: functional
Plasmodium falciparum [27] = test: Antiplasmodial activity against chloroquine-resistant Plasmodium falciparum TM6 infected in erythrocytes assessed as [3H]hypoxanthine incorporation in presence of dihydroartimisinin; format: functional
Plasmodium falciparum [28] = test: Selectivity ratio of IC50 for chloroquine-resistant Plasmodium falciparum C3 harboring Dd2 pfcrt allele to IC50 for chloroquine-sensitive Plasmodium falciparum C2; format: functional
Plasmodium falciparum [29] = test: Antiplasmodial activity against chloroquine-resistant Plasmodium falciparum 7G8 infected in erythrocytes assessed as [3H]hypoxanthine incorporation in presence of dihydroartimisinin; format: functional
Plasmodium falciparum [30] = test: Antiplasmodial activity against chloroquine-resistant Plasmodium falciparum K1 infected in erythrocytes assessed as [3H]hypoxanthine incorporation in presence of dihydroartimisinin; format: functional
Plasmodium falciparum [31] = test: Antiplasmodial activity against chloroquine-sensitive Plasmodium falciparum 3D7 infected in erythrocytes assessed as [3H]hypoxanthine incorporation in presence of dihydroartimisinin; format: functional

Structure (SMILES): C[C@H]1[C@@H](O)O[C@@H]2O[C@@]3(C)CC[C@H]4[C@H](C)CC[C@@H]1[C@@]24OO3 [ARTENIMOL]
- IC50 (Plasmodium falciparum [1]): 0.7 nM
- fractional inhibitory concentration index (FICI) (Plasmodium falciparum [2]): 1.27
- fractional inhibitory concentration index (FICI) (Plasmodium falciparum [3]): 1.34
- fractional inhibitory concentration index (FICI) (Plasmodium falciparum [4]): 2.51
- IC50 (Plasmodium falciparum [5]): 0.6 nM
- fractional inhibitory concentration index (FICI) (Plasmodium falciparum [6]): 0.8
- IC50 (Plasmodium falciparum [7]): 1.3 nM
- IC50 (Plasmodium falciparum [8]): 1 nM
- IC50 (Plasmodium falciparum [9]): 1 nM
- fractional inhibitory concentration index (FICI) (Plasmodium falciparum [10]): 2.4
- IC50 (Plasmodium falciparum [11]): 0.6 nM
- fractional inhibitory concentration index (FICI) (Plasmodium falciparum [12]): 2.86
- fractional inhibitory concentration index (FICI) (Plasmodium falciparum [13]): 1.34
- fractional inhibitory concentration index (FICI) (Plasmodium falciparum [14]): 1.25
- IC50 (Plasmodium falciparum [15]): 1.3 nM
- IC50 (Plasmodium falciparum [16]): 0.3 nM
- IC50 (Plasmodium falciparum [17]): 0.7 nM
- IC50 (Plasmodium falciparum [18]): 1 nM
- IC50 (Plasmodium falciparum [19]): 0.8 nM

Structure (SMILES): Clc1ccc2c(N3CCN(CCCN4CCN(c5ccnc6cc(Cl)ccc56)CC4)CC3)ccnc2c1 [PIPERAQUINE]
- fractional inhibitory concentration index (FICI) (Plasmodium falciparum [20]): 0.8
- fractional inhibitory concentration index (FICI) (Plasmodium falciparum [21]): 2.51
- IC50 (Plasmodium falciparum [1]): 8.1 nM
- fractional inhibitory concentration index (FICI) (Plasmodium falciparum [22]): 1.34
- fractional inhibitory concentration index (FICI) (Plasmodium falciparum [23]): 1.34
- fractional inhibitory concentration index (FICI) (Plasmodium falciparum [24]): 1.59
- IC50 (Plasmodium falciparum [5]): 9.1 nM
- fractional inhibitory concentration index (FICI) (Plasmodium falciparum [25]): 1.48
- IC50 (Plasmodium falciparum [7]): 11.2 nM
- IC50 (Plasmodium falciparum [8]): 15.8 nM
- fractional inhibitory concentration index (FICI) (Plasmodium falciparum [26]): 1.7
- IC50 (Plasmodium falciparum [9]): 13.4 nM
- fractional inhibitory concentration index (FICI) (Plasmodium falciparum [27]): 1.25
- fold change (FC) (Plasmodium falciparum [28]): 3
- IC50 (Plasmodium falciparum [11]): 3.4 nM
- fractional inhibitory concentration index (FICI) (Plasmodium falciparum [29]): 2.86
- IC50 (Plasmodium falciparum [15]): 12 nM
- IC50 (Plasmodium falciparum [16]): 6.6 nM
- fractional inhibitory concentration index (FICI) (Plasmodium falciparum [30]): 1.27
- fractional inhibitory concentration index (FICI) (Plasmodium falciparum [31]): 2.4
- IC50 (Plasmodium falciparum [18]): 11.5 nM
- IC50 (Plasmodium falciparum [19]): 3.9 nM

Reference: ChEMBL document CHEMBL1629673, “Role of known molecular markers of resistance in the antimalarial potency of piperaquine and dihydroartemisinin in vitro” (Antimicrob Agents Chemother, 2009)
